Consider 18 compounds from patent EP2934149B1, “C6-AZASPIRO IMINOTHIADIAZINE DIOXIDES AS BACE INHIBITORS” (Merck Sharp & Dohme Corp., priority 2012, dated 2014).

Experiment [1] deals with T1, purified human autoBACE-2 (Homo sapiens, UniProt Q9Y5Z0).
T1 sequence (Q9Y5Z0 63-473 limits assumed): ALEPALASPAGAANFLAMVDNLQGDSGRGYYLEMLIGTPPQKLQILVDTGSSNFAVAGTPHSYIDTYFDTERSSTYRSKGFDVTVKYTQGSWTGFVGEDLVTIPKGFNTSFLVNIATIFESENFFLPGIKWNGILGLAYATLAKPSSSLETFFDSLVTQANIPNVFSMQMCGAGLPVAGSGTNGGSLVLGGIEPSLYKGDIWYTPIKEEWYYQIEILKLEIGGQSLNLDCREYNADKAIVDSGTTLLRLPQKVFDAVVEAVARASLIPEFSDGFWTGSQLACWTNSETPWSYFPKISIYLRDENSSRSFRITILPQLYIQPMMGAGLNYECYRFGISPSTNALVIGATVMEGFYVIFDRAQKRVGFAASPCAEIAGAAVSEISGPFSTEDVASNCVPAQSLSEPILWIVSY
As to the kind of experiment: BACE-2 Assay (BACE-HTRF assay). The class given is biochemical. The following applies: Ki calculated from IC50 using the Cheng-Prusoff equation; QSY7-EISEVNLDAEFC-Eu-amide substrate 200 nM final, pH 5.0, 30°C; read-out: BACE2 Ki. The protocol: Inhibitor IC50's at purified human autoBACE-2 are determined in a time-resolved endpoint proteolysis assay that measures hydrolysis of the QSY7-[…]-Eu-amide FRET peptide substrate (BACE-HTRF assay). […] Inhibitor compounds, prepared at 3x the desired final concentration in 1x BACE assay buffer (20 mM sodium acetate pH 5.0,10% glycerol, 0.1% Brij-35) supplemented with 7.5% DMSO are pre-incubated with an equal volume of autoBACE-2 enzyme diluted in 1x BACE assay buffer (final enzyme concentration 1 nM) in black 384-well NUNC plates for 30 minutes at 30°C. […] DMSO is present at 5% final concentration in the assay. Following laser excitation of sample wells at 320 nm, the fluorescence signal at 620 nm is collected for 400 ms following a 50 µs delay on a RUBYstar HTRF plate reader (BMG Labtechnologies). Raw RFU data is normalized to maximum (1.0 nM BACE/DMSO) and minimum (no enzyme/DMSO) RFU values. […] The Ki values are calculated from the IC50 using the Cheng-Prusoff equation.

Experiment [2] deals with soluble human BACE1 catalytic domain (Homo sapiens, UniProt P56817). Briefly: BACE1 HTRF FRET Assay. It is filed as biochemical. The settings on record: Ki calculated from IC50 using the Cheng-Prusoff equation; QSY7-APPswe-Eu substrate 200 nM final, pH 5.0, 30° C. On the procedure:
A homogeneous time-resolved FRET assay can be used to determine IC50 values for inhibitors of the soluble human BACE1 catalytic domain. […] This substrate contains an N-terminal QSY7 moiety that serves as a quencher of the C-terminal Europium fluorophore (620nm Em). […] Inhibition of BACE1 cleavage of the QSY7-APP^swe-Eu substrate by inhibitors is manifested as a suppression of 620 nm fluorescence. […] The reactions are incubated at 30° C for 1.5 hours. The 620nm fluorescence is then read on a Rubystar HTRF plate reader (BMG Labtechnologies) using a 50 millisecond delay followed by a 400 millisecond acquisition time window. Inhibitor IC50 values are derived from non-linear regression analysis of concentration response curves.

soluble human BACE1 catalytic domain, sequence (P56817 75-416 limits assumed): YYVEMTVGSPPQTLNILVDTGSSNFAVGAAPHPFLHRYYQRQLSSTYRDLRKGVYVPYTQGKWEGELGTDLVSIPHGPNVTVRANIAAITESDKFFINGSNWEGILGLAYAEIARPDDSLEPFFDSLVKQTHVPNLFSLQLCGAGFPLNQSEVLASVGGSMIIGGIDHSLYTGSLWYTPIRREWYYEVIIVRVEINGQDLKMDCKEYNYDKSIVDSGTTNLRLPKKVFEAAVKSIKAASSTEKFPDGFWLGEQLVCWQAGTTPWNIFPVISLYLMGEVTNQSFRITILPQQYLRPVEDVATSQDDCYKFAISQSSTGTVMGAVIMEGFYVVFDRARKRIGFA

For orientation: Ki means a measure of affinity in units of concentration, obtained from inhibition or displacement. Take `COc1ccc(C(=O)Nc2ccc(F)c([C@@]3(C)NC(=N)N(C)S(=O)(=O)[C@@]34CCN(S(=O)(=O)C3CC3)C4)c2)nc1` [Example 60]: the Ki in experiment [1] is 0.004 µM; in experiment [2], 0.001 µM.

For `COc1ccc(C(=O)Nc2ccc(F)c([C@@]3(C)NC(=N)N(C)S(=O)(=O)[C@@]34CCN(S(=O)(=O)c3cn(C)cn3)C4)c2)nc1` [Example 61], the values for the Ki in experiment [1] and in experiment [2] were 0.038 µM and 0.006 µM, respectively.

As to `COc1ccc(C(=O)Nc2ccc(F)c([C@@]3(C)NC(=N)N(C)S(=O)(=O)[C@@]34CCN(S(=O)(=O)CC3CCCO3)C4)c2)nc1` (stereo partly drawn) [Example 62], the results for the inhibition constant (Ki) in experiment [1] and in experiment [2] were 0.019 µM and 0.003 µM, respectively.

As for `COc1ccc(C(=O)Nc2ccc(F)c([C@@]3(C)NC(=N)N(C)S(=O)(=O)[C@]34CCN(S(=O)(=O)c3ccccc3)C4)c2)nc1` [Example 63], the Ki in experiment [1] is 0.024 µM; in experiment [2], 0.012 µM.

For `COc1ccc(C(=O)Nc2ccc(F)c([C@@]3(C)NC(=N)N(C)S(=O)(=O)[C@]34CCN(S(=O)(=O)C3CC3)C4)c2)nc1` [Example 64], the figures for the inhibition constant (Ki) in experiment [1] and in experiment [2] were 0.14 µM and 0.04 µM, respectively.

`COc1ccc(C(=O)Nc2ccc(F)c([C@@]3(C)NC(=N)N(C)S(=O)(=O)[C@]34CCN(S(=O)(=O)c3cn(C)cn3)C4)c2)nc1` [Example 65]: the inhibitory constant (Ki) in experiment [1] is 0.068 µM; in experiment [2], 0.029 µM.

`COc1ccc(C(=O)Nc2ccc(F)c([C@@]3(C)NC(=N)N(C)S(=O)(=O)[C@]34CCN(S(=O)(=O)CC3CCCO3)C4)c2)nc1` (stereo partly drawn) [Example 66]: the Ki is 0.087 µM in experiment [1] and 0.032 µM in experiment [2].

As for `COc1ccc(C(=O)Nc2ccc(F)c([C@@]3(C)NC(=N)N(C)S(=O)(=O)[C@]34CCN(S(=O)(=O)c3cn[nH]c3)C4)c2)nc1` [Example 67], the Ki is 0.04 µM in experiment [1] and 0.02 µM in experiment [2].

Consider `COc1ccc(C(=O)Nc2ccc(F)c([C@@]3(C)NC(=N)N(C)S(=O)(=O)[C@]34CCN(S(C)(=O)=O)C4)c2)nc1` [Example 68], for which the Ki is 0.205 µM in experiment [1] and 0.035 µM in experiment [2].

Take `CCS(=O)(=O)N1CC[C@]2(C1)[C@@](C)(c1cc(NC(=O)c3ccc(OC)cn3)ccc1F)NC(=N)N(C)S2(=O)=O` [Example 69]: the results for the Ki in experiment [1] and in experiment [2] were 0.157 µM and 0.033 µM, respectively.

Turning to `COc1ccc(C(=O)Nc2ccc(F)c([C@@]3(C)NC(=N)N(C)S(=O)(=O)[C@]34CCN(S(=O)(=O)CC(C)C)C4)c2)nc1` [Example 70], the figures for the Ki in experiment [1] and in experiment [2] were 0.1 µM and 0.037 µM, respectively.

Consider `COc1ccc(C(=O)Nc2ccc(F)c([C@@]3(C)NC(=N)N(C)S(=O)(=O)[C@]34CCN(S(=O)(=O)c3ccc(F)cc3)C4)c2)nc1` [Example 71], for which the Ki in experiment [1] was 0.03 µM; in experiment [2] it was 0.024 µM.

`COc1ccc(C(=O)Nc2ccc(F)c([C@@]3(C)NC(=N)N(C)S(=O)(=O)[C@]34CCN(S(=O)(=O)CC(F)(F)F)C4)c2)nc1` [Example 72]: the Ki in experiment [1] was 0.099 µM; in experiment [2] it was 0.028 µM.

On to `CN1C(=N)N[C@](C)(c2cc(NC(=O)c3ccc(F)cn3)ccc2F)[C@]2(CCN(S(=O)(=O)c3ccc(F)cc3)C2)S1(=O)=O` [Example 73], for which the Ki in experiment [1] is 0.01 µM; in experiment [2] it was 0.003 µM.

With `CN1C(=N)N[C@](C)(c2cc(NC(=O)c3ccc(F)cn3)ccc2F)[C@]2(CCN(S(=O)(=O)CC(F)(F)F)C2)S1(=O)=O` [Example 74], the results for the Ki in experiment [1] and in experiment [2] were 0.004 µM and 0.002 µM, respectively.

In the case of `CN1C(=N)N[C@](C)(c2cc(NC(=O)c3ccc(F)cn3)ccc2F)[C@]2(CCN(S(C)(=O)=O)C2)S1(=O)=O` [Example 75], the inhibition constant (Ki) was 0.007 µM in experiment [1] and 0.004 µM in experiment [2].

As for `CCS(=O)(=O)N1CC[C@@]2(C1)[C@@](C)(c1cc(NC(=O)c3ccc(F)cn3)ccc1F)NC(=N)N(C)S2(=O)=O` [Example 76], the Ki is 0.004 µM in experiment [1] and 0.002 µM in experiment [2].

Turning to `CC(C)CS(=O)(=O)N1CC[C@@]2(C1)[C@@](C)(c1cc(NC(=O)c3ccc(F)cn3)ccc1F)NC(=N)N(C)S2(=O)=O` [Example 77], the inhibition constant (Ki) in experiment [1] is 0.003 µM; in experiment [2] it was 0.002 µM.
